According to patent publication US12226425B2, “Inhibitors of ARG1 and/or ARG2” (Arcus Biosciences, Inc., priority 2018, dated 2025):

molecular target: T1, recombinant human ARG1 (Homo sapiens, UniProt P05089); test: Arginase coupled enzymatic assay using recombinant human ARG1; assay type: biochemical; conditions: 2 nM ARG1, 0.8 mM L-Arginine, 10 mM sodium phosphate pH 7.4, 0.1 mM MnCl2, 37° C., absorption at 570 nm; read-out: hARG1 potency (IC50)
T1 sequence (P05089 1-322): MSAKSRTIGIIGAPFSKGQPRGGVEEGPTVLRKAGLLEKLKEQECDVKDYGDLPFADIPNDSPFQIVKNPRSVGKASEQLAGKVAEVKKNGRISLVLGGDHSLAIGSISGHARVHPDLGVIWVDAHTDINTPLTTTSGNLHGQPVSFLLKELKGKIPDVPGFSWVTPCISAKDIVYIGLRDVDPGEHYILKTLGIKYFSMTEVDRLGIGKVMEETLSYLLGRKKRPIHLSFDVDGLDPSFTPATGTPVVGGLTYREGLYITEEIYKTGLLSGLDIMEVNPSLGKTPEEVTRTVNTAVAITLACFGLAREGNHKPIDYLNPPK
Experimental: Purified recombinant human ARG1 and ARG2 were prepared in 50 mM Bicine, pH 8.5, 100 μM MnCl2, 20% glycerol and 1mM DTT at a final stock concentration of 14.4 μM and 7.56 μM respectively. 2.5 nM of either ARG1 or ARG2 were incubated with varying concentrations of compounds in 10 mM sodium phosphate, pH 7.4, 0.1 mM MnCl2 and 2.5% DMSO in a total volume of 40 μl in a 384-well microplate (Corning™ #3640) at 37° C. for 1 h. The arginase enzymatic reaction was initiated by addition of 10 μl of 4 mM L-Arginine pre-incubated in 10 mM sodium phosphate, pH 7.4, and 0.1 mM MnCl2 at 37° C. into the enzyme and compound mixture, giving the final reaction conditions: 2 nM of ARG1 or ARG2 and 0.8 mM of L-Arginine in 10 mM sodium phosphate, pH 7.4, 0.1 mM MnCl2 and 2% DMSO with varying concentrations of compounds. Following 2 h incubation at 37° C., the arginase enzymatic reaction was stopped by transfer of 10 μl of reaction into 10 μl of detection mix (204 μM Amino-2-Borono-6-Hexanoic Acid, 0.25 μl Arginase Enzyme mix, 0.25 μl Arginase Developer, 0.25 μl Arginase Converter Enzyme in Arginase Assay Buffer from Arginase Activity Colorimetric Assay Kit, BioVision Inc. #K755-100) in a transparent 384-well microplate (Greiner #781801). The plate was immediately put into a plate reader (Synergy™ Neo2 Multi-Mode Microplate Reader) to monitor absorption at 570 nm at 37° C. Absorption values at 12˜20 min were used to calculate compound potency. The value of the DMSO blank (MIN inhibition=100% activity) was used as a negative control. The positive control was established by adding 8 μl of enzyme and DMSO mix into 10 μl of detection mix followed by addition of 2 μl of L-Arginine (MAX inhibition=0% activity). To calculate the percent activity, Equation 1 was used. Abs570nm is the value at a given compound concentration:
A counter-screen was performed to identify any inhibition of the coupling enzymes by the test compounds. 10 μl of 0.26 mM of urea with varying concentrations of compounds in 10 mM sodium phosphate, pH 7.4, 0.1 mM MnCl2 and 2% DMSO were added into 10 μl of detection mix in place of the arginase enzymatic reaction mix. Absorption was monitored at 570 nm as described above. The values of a no substrate blank (without urea; MAX inhibition=0% activity) and a DMSO blank (MIN inhibition=100% activity) were used as positive and negative controls respectively. […] Inactivity in the counter-screen was used to confirm that results accurately reflected IC50 values for ARG1 and ARG2.

Row | IC50 | SMILES
1 | 100 to 1000 nM | NCc1cccc2c1C[C@H](CCCB(O)O)[C@]2(N)C(=O)O
2 | > 1000 nM | N[C@@]1(C(=O)O)c2cccc(CO)c2C[C@@H]1CCCB(O)O
3 | > 1000 nM | N[C@@]1(C(=O)O)c2cccc(-c3cn[nH]c3)c2C[C@@H]1CCCB(O)O
4 | > 1000 nM | Cc1ccc2c(c1)[C@@](N)(C(=O)O)[C@@H](CCCB(O)O)C2
5 | > 1000 nM | C[C@]1(CCCB(O)O)Cc2ccccc2[C@@]1(N)C(=O)O
6 | 100 to 1000 nM | COc1ccc2c(c1)[C@@](N)(C(=O)O)[C@@H](CCCB(O)O)C2
7 | 100 to 1000 nM | CN[C@@]1(C(=O)O)c2cc(CN3CC(F)(F)C3)c(Cl)cc2C[C@@H]1CCCB(O)O
8 | 100 to 1000 nM | CN[C@@]1(C(=O)O)c2cc(-c3ncccc3C)c(F)cc2C[C@@H]1CCCB(O)O
9 | 100 to 1000 nM | CN[C@@]1(C(=O)O)c2cc(N3CC[C@H](O)C3)c(F)cc2C[C@@H]1CCCB(O)O
10 | < 100 nM | CNCc1cc2c(cc1F)C[C@H](CCCB(O)O)[C@]2(NC)C(=O)O
11 | < 100 nM | CN[C@@]1(C(=O)O)c2cc(CN3CCCC3)c(F)cc2C[C@@H]1CCCB(O)O
12 | < 100 nM | CN[C@@]1(C(=O)O)c2cc(CN(C)C)c(Cl)cc2C[C@@H]1CCCB(O)O
13 | 100 to 1000 nM | CN[C@@]1(C(=O)O)c2cc(-c3cccnc3)c(F)cc2C[C@@H]1CCCB(O)O
14 | < 100 nM | CN[C@@]1(C(=O)O)c2cc(-c3ccc(CN)cc3)c(Cl)cc2C[C@@H]1CCCB(O)O
15 | 100 to 1000 nM | CN[C@@]1(C(=O)O)c2cc(Nc3ccccn3)c(F)cc2C[C@@H]1CCCB(O)O
16 | 100 to 1000 nM | CN[C@@]1(C(=O)O)c2cc([C@H](N)C(F)(F)F)ccc2C[C@@H]1CCCB(O)O
17 | < 100 nM | CN[C@@]1(C(=O)O)c2cc(Cn3ccnc3N)c(Cl)cc2C[C@@H]1CCCB(O)O
18 | < 100 nM | CN[C@@]1(C(=O)O)c2cc(CN)ccc2C[C@@H]1CCCB(O)O
19 | 100 to 1000 nM | CN[C@@]1(C(=O)O)c2cc(CNC(C)=O)ccc2C[C@@H]1CCCB(O)O
20 | < 100 nM | CN[C@@]1(C(=O)O)c2cc(-c3ccccc3CN)c(F)cc2C[C@@H]1CCCB(O)O
21 | < 100 nM | CN[C@@]1(C(=O)O)c2cc(CNC(=O)[C@H](C)N)ccc2C[C@@H]1CCCB(O)O
22 | < 100 nM | CN[C@@]1(C(=O)O)c2cc(-c3ccc(CN)cc3)ccc2C[C@@H]1CCCB(O)O
23 | 100 to 1000 nM | CN[C@@]1(C(=O)O)c2cc(CNCC(F)(F)F)c(F)cc2C[C@@H]1CCCB(O)O
24 | < 100 nM | CN[C@@]1(C(=O)O)c2cc(CN3CCCC3(C)C)c(F)cc2C[C@@H]1CCCB(O)O

Row | IC50 | SMILES
25 | < 100 nM | CN[C@@]1(C(=O)O)c2cc(CN3CC[C@@H](F)C3)c(F)cc2C[C@@H]1CCCB(O)O
26 | 100 to 1000 nM | CN[C@@]1(C(=O)O)c2cc(CN3CCC(F)(F)CC3)c(F)cc2C[C@@H]1CCCB(O)O
27 | < 100 nM | CC[C@@H](N)c1cc2c(cc1Cl)C[C@H](CCCB(O)O)[C@]2(NC)C(=O)O
28 | < 100 nM | CC[C@H](N)c1cc2c(cc1Cl)C[C@H](CCCB(O)O)[C@]2(NC)C(=O)O
29 | < 100 nM | CN[C@@]1(C(=O)O)c2cc(-c3cccc(CN)c3)c(Cl)cc2C[C@@H]1CCCB(O)O
30 | < 100 nM | CN[C@@]1(C(=O)O)c2cc(CN3CCCCC3)c(F)cc2C[C@@H]1CCCB(O)O
31 | 100 to 1000 nM | CN[C@@]1(C(=O)O)c2cc(-c3ncccc3N)c(F)cc2C[C@@H]1CCCB(O)O
32 | 100 to 1000 nM | CN[C@@]1(C(=O)O)c2cc(Cc3ccccn3)c(Cl)cc2C[C@@H]1CCCB(O)O
33 | < 100 nM | CN[C@@]1(C(=O)O)c2cc(-c3cc(F)ccc3CN)c(F)cc2C[C@@H]1CCCB(O)O
34 | < 100 nM | CN[C@@]1(C(=O)O)c2cc([C@H](N)C3CC3)c(F)cc2C[C@@H]1CCCB(O)O
35 | < 100 nM | CC[C@@H](N)c1cc2c(cc1F)C[C@H](CCCB(O)O)[C@]2(NC)C(=O)O
36 | < 100 nM | CC[C@H](N)c1cc2c(cc1F)C[C@H](CCCB(O)O)[C@]2(NC)C(=O)O
37 | < 100 nM | CN[C@@]1(C(=O)O)c2cc(CN3CCC(c4ccccc4)CC3)c(F)cc2C[C@@H]1CCCB(O)O
38 | < 100 nM | CN[C@@]1(C(=O)O)c2cc([C@@H](N)C3CC3)c(Cl)cc2C[C@@H]1CCCB(O)O
39 | < 100 nM | CN[C@@]1(C(=O)O)c2cc(-c3ccccc3CCN)c(F)cc2C[C@@H]1CCCB(O)O
40 | < 100 nM | CN[C@@]1(C(=O)O)c2cc(-c3ccc(F)cc3CN)c(F)cc2C[C@@H]1CCCB(O)O
41 | < 100 nM | CN[C@@]1(C(=O)O)c2cc(CNC3CC3)c(F)cc2C[C@@H]1CCCB(O)O
42 | < 100 nM | CN[C@@]1(C(=O)O)c2cc([C@H](N)C3CC3)c(Cl)cc2C[C@@H]1CCCB(O)O
43 | < 100 nM | CN[C@@]1(C(=O)O)c2cc([C@@H](N)C3CC3)c(F)cc2C[C@@H]1CCCB(O)O
44 | < 100 nM | CN[C@@]1(C(=O)O)c2cc(CNC3CCCC3)c(F)cc2C[C@@H]1CCCB(O)O
45 | < 100 nM | CN[C@@]1(C(=O)O)c2cc(CNC(C)C)c(F)cc2C[C@@H]1CCCB(O)O
46 | < 100 nM | CN[C@@]1(C(=O)O)c2cc([C@H](N)C(C)C)c(F)cc2C[C@@H]1CCCB(O)O
47 | < 100 nM | CN[C@@]1(C(=O)O)c2cc([C@@H](N)C(C)C)c(F)cc2C[C@@H]1CCCB(O)O
48 | < 100 nM | CN[C@@]1(C(=O)O)c2cc([C@H](N)C(C)C)c(Cl)cc2C[C@@H]1CCCB(O)O

Row | IC50 | SMILES
49 | < 100 nM | CN[C@@]1(C(=O)O)c2cc([C@@H](N)C(C)C)c(Cl)cc2C[C@@H]1CCCB(O)O
50 | < 100 nM | CN[C@@]1(C(=O)O)c2cc(C3(N)CCC3)c(F)cc2C[C@@H]1CCCB(O)O
51 | < 100 nM | CN[C@@]1(C(=O)O)c2cc(C3(N)CCC3)c(Cl)cc2C[C@@H]1CCCB(O)O
52 | < 100 nM | CN[C@@]1(C(=O)O)c2cc(C3(N)CCC3)ccc2C[C@@H]1CCCB(O)O
53 | < 100 nM | CN[C@@]1(C(=O)O)c2cc(C3(N)CCCCC3)c(F)cc2C[C@@H]1CCCB(O)O
54 | < 100 nM | CN[C@@]1(C(=O)O)c2cc([C@H](C)N)ccc2C[C@@H]1CCCB(O)O
55 | < 100 nM | CN[C@@]1(C(=O)O)c2cc(-c3cccc(F)c3C(C)(C)N)c(F)cc2C[C@@H]1CCCB(O)O
56 | < 100 nM | CN[C@@]1(C(=O)O)c2cc(C(C)(C)CN)c(F)cc2C[C@@H]1CCCB(O)O
57 | < 100 nM | CN[C@@]1(C(=O)O)c2cc(C(C)(C)C(C)(C)N)c(F)cc2C[C@@H]1CCCB(O)O
58 | < 100 nM | CN[C@@]1(C(=O)O)c2cc(O[C@@H]3CCC[C@H]3N)c(F)cc2C[C@@H]1CCCB(O)O
59 | < 100 nM | CN[C@@]1(C(=O)O)c2cc(OCCN)ccc2C[C@@H]1CCCB(O)O
60 | < 100 nM | CN[C@@]1(C(=O)O)c2cc(C3(C(C)(C)N)CCC3)c(F)cc2C[C@@H]1CCCB(O)O
61 | < 100 nM | CN[C@@]1(C(=O)O)c2cc(CCCN)c(F)cc2C[C@@H]1CCCB(O)O
62 | < 100 nM | CN[C@@]1(C(=O)O)c2cc(C3(CNC(=O)[C@H](C)N)CCC3)c(F)cc2C[C@@H]1CCCB(O)O
63 | < 100 nM | CN[C@@]1(C(=O)O)c2cc([C@H]3CCCN3)c(F)cc2C[C@@H]1CCCB(O)O
64 | < 100 nM | CN[C@@]1(C(=O)O)c2cc([C@@H]3CCCN3)c(F)cc2C[C@@H]1CCCB(O)O
65 | 100 to 1000 nM | CN[C@@]1(C(=O)O)c2cc(C3(C(N)=O)CCC3)c(F)cc2C[C@@H]1CCCB(O)O
66 | < 100 nM | NC1(c2cc3c(cc2F)C[C@H](CCCB(O)O)[C@]3(N)C(=O)O)CCC1
67 | < 100 nM | CN[C@@]1(C(=O)O)c2cc(C3(CN)CCC3)c(F)cc2C[C@@H]1CCCB(O)O
68 | 100 to 1000 nM | CN[C@@]1(C(=O)O)c2cc(-c3ccccc3CO)c(F)cc2C[C@@H]1CCCB(O)O
69 | 100 to 1000 nM | CN[C@@]1(C(=O)O)c2cc(C3(NC(=O)[C@H](C)N)CCC3)c(F)cc2C[C@@H]1CCCB(O)O
70 | < 100 nM | CN[C@@]1(C(=O)O)c2cc(C3(N)CC3)c(F)cc2C[C@@H]1CCCB(O)O
71 | < 100 nM | CN[C@@]1(C(=O)O)c2cc(C3(N)CCCC3)c(F)cc2C[C@@H]1CCCB(O)O
72 | < 100 nM | CC[C@](C)(N)c1cc2c(cc1F)C[C@H](CCCB(O)O)[C@]2(NC)C(=O)O
